Marks after values point to notes of the source that are not given here.
Assays:
[1] = test system: ICR male mice; experiment: Forced swim test (mouse, mFST); type: in vivo; settings: for Immobile posture time (sec.)/4 minutes, Treatment: mouse, administered orally 60 minutes before testing
Description: (§1) In order to determine the anti-depressant effect in rodents, the forced swim test was performed with rats and mice. The forced swim test causes an immobile state by forcing an animal to swim in a confined space. It reflects a state of despair giving up evading such a circumstance. ICR male mice (25 g to 30 g) and Wistar male rats (240 g to 260 g) were purchased from Samtako Bio Korea Co. (Korea) and allowed to acclimatize for 1 week before being tested in a controlled animal facility (temperature 22±2° C., humidity 55±5%). The test compound was dissolved in 20% Tween80 and administered orally 60 minutes before testing. The control group was provided with a corresponding vehicle. […] 15 minutes of forced swimming was performed a day before the experiment. On the day of the experiment, the animal was placed in the cylinder 60 minutes after the administration of the compound and was videotaped for 6 minutes. In the recorded videos, time during which the animal placed its head on the water and remained still without movement was measured based on the remaining 4 minutes excluding the first 2 minutes. It was evaluated that the lower the value of the immobile posture time, the greater the anti-depressant action (Reference; Porsolt R D, Le Pichon M. Jalfre M. 1997. Depression: a new animal model sensitive to antidepressant treatments. Nature. April 21; 266(5604):730-2.).
(§2) The result was shown as the standard error of measurement (SEM) of mean value t mean value. Behavioral data were analyzed by one-way ANOVA. For statistical significance, a value of <0.05 was taken (***p<0.001, **p=0.001˜0.01, *p=0.01˜0.05). Data management and statistics were performed using the Prism software of Windows version 4 (GraphPad Softward Co., San Diego, CA, USA).
(§3) Based on the results of Table 7, the ED50 value of the compound of Example 2 was calculated and shown in Table 7, and after 30 mg/kg and 60 mg/kg of the compounds of the other remaining examples were administered based on TD50 values to perform the forced swim tests, respectively, the administration doses with protected efficacy and protection % at the corresponding administration doses were shown in Table 7.

[2] = test system: Wistar male rats; experiment: Forced swim test (rat, rFST); type: in vivo; settings: for Immobile posture time (sec.)/4 minutes, Treatment: rat, administered orally 60 minutes before testing
Description: as §1, §2, §3

SMILES: CC1(C)O[C@@H](COS(N)(=O)=O)[C@H](c2ccccc2Cl)O1 [Example 2, ((4S,5S)-5-(2-chlorophenyl)-2,2-dimethyl-1,3-dioxolan-4-yl)methyl sulfamate]
- ED50 ([1]; mouse forced swim test, po): 23.5 mg/kg
- Immobile posture time (sec.)/4 minutes, Treatment ([1]; 10 mg/kg): 105.7 ± 6.9** sec./4 minutes
- Immobile posture time (sec.)/4 minutes, Treatment ([1]; 20 mg/kg): 80.5 ± 8.6** sec./4 minutes
- Immobile posture time (sec.)/4 minutes, Treatment ([1]; 40 mg/kg): 61.2 ± 20.1** sec./4 minutes
- ED50 ([2]; rat forced swim test, po): 13.3 mg/kg
- Immobile posture time (sec.)/4 minutes, Treatment ([2]; 5 mg/kg): 160.7 ± 3.8 sec./4 minutes
- Immobile posture time (sec.)/4 minutes, Treatment ([2]; 10 mg/kg): 117.3 ± 12.2** sec./4 minutes
- Immobile posture time (sec.)/4 minutes, Treatment ([2]; 20 mg/kg): 51.0 ± 11.6** sec./4 minutes
